Values quoted from earlier work in patent publication US20170209579A1, “NON-INVASIVE RADIOFREQUENCY FIELD TREATMENT FOR CANCER THERAPY” (Baylor College of Medicine, priority 2014, published 2017).

Tested on: tumor
Settings: Monsky et al.; cited from earlier work

SMILES: COc1cccc2c1C(=O)c1c(O)c3c(c(O)c1C2=O)C[C@@](O)(C(=O)CO)C[C@@H]3O[C@H]1C[C@H](N)[C@H](O)[C@H](C)O1 [free doxorubicin]
- accumulation and retention in the tumor after conventional RFA: not
